# Assay results taken from patent US20220087951A1, “USE OF CANNABINOIDS IN THE TREATMENT OF EPILEPSY” (GW RESEARCH LIMITED, priority 2020, published 2022).
# How the values were obtained:
# [1] = system: seizures in children and young adults with Dravet Syndrome and Lennox-Gastaut Syndrome; assay: Example 1: primary seizure count during baseline and by cumulative day in the treatment period, CBD vs placebo added to baseline AED regimen; type: in vivo, human; conditions: for Ratio to Baseline (number of seizures with treatment to number of seizures at baseline): 5 mg/kg/day starting dose, negative binomial regression of primary seizure count; for percent change in number of seizures compared to baseline: 5 mg/kg/day, positive = decrease in seizures
# Procedure: Children and young adults with Dravet Syndrome Lennox-Gastaut Syndrome were administered a highly purified extract of cannabidiol (CBD) obtained from a cannabis plant or placebo.
# The highly purified CBD extract (greater than 98% CBD w/w) was administered in a formulation described herein at a starting dose of 5 mg/kg/day in addition to their baseline anti-epileptic drug (AED) regimen.
# The starting dose increase from 5 mg/kg/day to 10 mg/kg/day after one week of administering the first dose of CBD. […] The titration period occurred over two weeks. The starting dose was expected to minimize side effects, and not intended to achieve efficacy.
# All patients were taking at least two concomitant anti-epileptic drugs. These included clobazam; levetiracetam; topiramate; stiripentol; phenobarbital; lacsamide; valproic acid; zonisamide.
# (§1) Prior to treatment with CBD, patients recorded the number of seizures they experienced. This established the baseline levels. During the course of treatment, patients recorded the number of seizures experienced each day.
# The ratio in Table 9 is defined as the number of seizures with treatment to the number of seizures at baseline (e.g., before treatment). The percentage defines the percent change in number of seizures compared to baseline. Positive percentages reflect a decrease in the number of seizures compared to baseline, and negative percentages reflect an increase in number of seizures compared to baseline. The ratio to baseline of patients administered CBD extract includes data from patients treated with a maximum of 10 mg/kg/day or 20 mg/kg/day CBD extract. However, the amount of CBD administered to each treatment arm (10 mg/kg/day and 20 mg/kg/day) over the first 7 days of the study is the same.
# [2] = system: seizures in patients with Tuberous Sclerosis Complex (TSC); assay: Example 2: mean total seizures over time of TSC patients after administration of CBD (FIG. 2); type: in vivo, human
# Procedure: Patients with TSC were administered a highly purified extract of cannabidiol (CBD) obtained from a cannabis plant described herein. Similar to Example 1, patients with a TSC diagnosis were administered a starting dose of 5 mg/kg/day CBD in addition to their baseline anti-epileptic drug (AED) regimen or placebo.
# The daily dose was increased by 5 mg/kg increments until intolerance occurred or a maximum dose of 25 mg/kg/day was achieved. The starting dose increase from 5 mg/kg/day to 10 mg/kg/day occurred 7 days after administration of the first dose of CBD. […] The titration period occurred over two weeks. For patients in need of further seizure reduction, the dosage of 20 mg/kg/day was increased up to 25 mg/kg/day after one week.
# All patients were taking at least two concomitant anti-epileptic drugs. These included clobazam; levetiracetam; topiramate; stiripentol; phenobarbital; lacsamide; valproic acid; zonisamide. The average number of concomitant antiepileptic drugs being taken was 2.7. The majority took either clobazam and/or valproic acid.
# as §1
# [3] = Solubility of the drug substance in water; type: physicochemical
smiles,measurement,setting,value
"C=C(C)[C@@H]1CCC(C)=C[C@H]1c1c(O)cc(CCCCC)cc1O [CBD, Cannabidiol]",Ratio to Baseline (number of seizures with treatment to number of seizures at baseline),[1]; Day 1,0.958
same,percent change in number of seizures compared to baseline,[1]; Day 1,[4.2%]
same,onset of seizure reduction,"[1]; Dravet/Lennox-Gastaut patients, starting dose 5 mg/kg/day",within one week
same,Ratio to Baseline (number of seizures with treatment to number of seizures at baseline),[1]; First 2 Days,0.907
same,percent change in number of seizures compared to baseline,[1]; First 2 Days,[9.3%]
same,Ratio to Baseline (number of seizures with treatment to number of seizures at baseline),[1]; First 3 Days,0.882
same,percent change in number of seizures compared to baseline,[1]; First 3 Days,[11.8%]
same,Ratio to Baseline (number of seizures with treatment to number of seizures at baseline),[1]; First 4 Days,0.831
same,percent change in number of seizures compared to baseline,[1]; First 4 Days,[16.9%]
same,Ratio to Baseline (number of seizures with treatment to number of seizures at baseline),[1]; First 5 Days,0.793
same,percent change in number of seizures compared to baseline,[1]; First 5 Days,[20.7%]
same,Ratio to Baseline (number of seizures with treatment to number of seizures at baseline),[1]; First 6 Days,0.742
same,percent change in number of seizures compared to baseline,[1]; First 6 Days,[25.8%]
same,Ratio to Baseline (number of seizures with treatment to number of seizures at baseline),[1]; First 7 Days,0.717
same,percent change in number of seizures compared to baseline,[1]; First 7 Days,[28.3%]
same,reduction in seizures compared to baseline,[1]; after 4 days of treatment,significant reduction in seizures
same,reduction of seizures,"[1]; from within 4 days of treatment, 5 mg/kg/day CBD",> 15%
same,time to seizure reduction after administration of starting dose,[1]; starting dose 5 mg/kg/day,≤ 4 days
same,reduction in seizures compared to baseline,[2]; after 4 days of treatment,significant reduction in seizures
same,onset of seizure reduction,[2]; starting dose 5 mg/kg/day,within one week
same,time to seizure reduction after administration of starting dose,[2]; starting dose 5 mg/kg/day,≤ 4 days
same,mean total seizures over time (FIG. 2),"[2]; titration period, starting dose 5 mg/kg/day",starts decreasing during the titration period
same,solubility in water,[3],insoluble in water
